{"source": "patent US10335423B2", "about": "“Inhibition of HIV infection through chemoprophylaxis” (THE UNITED STATES OF AMERICA, as represented by the …, priority 2006, dated 2019)", "key": {"SHIVSF162P3 [1]": {"test_system": "SHIVSF162P3", "test": "Repeated weekly rectal SHIV162p3 exposures under once daily prophylaxis (survival curves)", "format": "in vivo, rhesus macaques", "procedure": "A chimeric envelope SHIVSF162P3 isolate is used to inoculate the macaques. SHIVSF162P3 is a construct that contains the tat, rev, and env coding regions of HIV-1SF162 in a background of SIVmac239. This isolate was obtained from the National Institutes of Health (NIH) AIDS Research and Reference Reagent Program.^7,8 Virus exposures are performed 2 hours after drug treatment, and involved non-traumatic inoculation of 1 mL of SHIVSF162P3 (10 TCID50 or […]) into the rectal vault via a sterile gastric feeding tube.^9 Anesthetized macaques remained recumbent for at least 15 min after each intra-rectal inoculation.\nThe exact log-rank test is used for a discrete-time survival analysis of the treatment and control groups, with use of the number of inoculations as the time variable. The Cox proportional hazards model is used to estimate the relative hazard ratio (HR). Percent protection is calculated from the HR value using the formula: (1-1/HR)×100. All statistical analyses for calculation of the efficacy of the different interventions are performed using SAS software (version 9.1; SAS Institute) and StatXact software (version 6.3; Cytel).\nMacaques are exposed rectally once weekly for up to 14 weeks to SHIV162p3 which contains an R5 tropic HIV-1 envelope that resembles naturally transmitted viruses. The SHIV162p3 challenge dose is 10 TCID50 or 7.6×10^5 RNA copies which is similar to HIV-1 RNA levels in semen during acute infection in humans.^11 Virus exposures are terminated when a macaque became infected. […] Three prophylactic drug treatments of increasing drug potency are each given once daily to a group of six macaques. Animals in Group 1 were treated subcutaneously with 20 mg/kg of FTC alone. Animals in Group 2 received orally a combination of FTC (20 mg/kg) and TDF (22 mg/kg). […] The rate of infection in each group is compared with that seen in 18 untreated control macaques (9 real time and 9 historical controls).\nAll treated macaques received the corresponding drugs 7 to 9 days prior to the first virus inoculation to achieve steady-state plasma levels. Treated animals that remained uninfected during the 14 challenges received 28 days of post-exposure prophylaxis after the last challenge. Protection was defined as absence of persistent viremia and seroconversion.\nData with TDF (20 mg/kg) is also provided for comparison."}, "[2]": {"settings": "human, in vivo, cited from earlier work"}, "in vivo": {"test": "in vivo", "settings": "rhesus monkey", "procedure": "A dose of 22 mg/kg of tenofovir disoproxil fumarate (TDF) is given orally and 20 mg/kg of emtricitabine (FTC) given orally or subcutaneously to one group of adult male rhesus macaques."}, "SHIVSF162P3 [3]": {"test_system": "SHIVSF162P3", "test": "SHIV plasma viral load (real-time PCR) in breakthrough infections", "format": "in vivo, rhesus macaques", "procedure": "Plasma RNA is quantified using a real-time PCR assay as previously described.^5 This assay has a sensitivity of detection of 50 RNA copies/ml or 10 copies of a pVp1 plasmid carrying the SIVmac239 RT gene. HIV-1 RNA is extracted from 1 mL of plasma using the NucliSens extraction method (bioMerieux). A known amount of virus particles (3×10^5) from an HIV-1 CM240 virus stock is added to each sample prior to extraction to control for the efficiency of extraction. Reverse transcription is performed using 10 microliters (μl) of extracted RNA and the 2-step TaqMan Gold reverse-transcriptase (RT)—PCR kit (Applied Biosystems) according to the manufacturer's instructions. PCR reactions are performed as described using an ABI 7000 […] (Applied Biosystems). Virus loads are calculated from a standard curve generated with known amount of virus particles. All primers and probes used for SIVmac239 and HIV-1 CM240 have been reported elsewhere.^5 HIV-1 CM240 is obtained from the National Institutes of Health (NIH) AIDS Research and Reference Reagent Program.\nSince the dynamics of breakthrough infections that occur during inventive prophylaxis and drug resistance emergence are unknown, the 6 infected animals from Groups 1 and 2 are followed under continued drug treatment. FIG. 3 compares the virus load kinetics in the 6 breakthrough infections with those in 12 untreated macaques that had sufficient follow-up samples. The mean peak viremia in the 6 treated macaques was 4.9±0.5 log10 RNA copies/ml, 2.0 log10 lower than in untreated controls (6.9±0.3 log10 RNA). […] In contrast, all 12 untreated macaques had detectable virus loads during a median follow-up period of 7 weeks (range=5-36 weeks). The arrow in FIG. 4 denotes the first detectable antibody response. Grey circles indicate detectable M184V/I mutation; wild type sequences are shown in black full circles. Open circles are provided for data points not genotyped."}, "[4]": {"test_system": "simian immunodeficiency virus (SIV)", "settings": "monkey models challenged with SIV; cited from earlier work"}, "SHIV": {"test_system": "SHIV", "settings": "oral daily dosing, dose equivalent to that used in humans; cited from earlier work"}}, "note": "Counter-ions that a name gives are not always drawn. Like-named read-outs stand apart in the source and are kept apart here."}
{"smiles": "Nc1nc(=O)n([C@@H]2CS[C@H](CO)O2)cc1F", "note": "[FTC, emtricitabine]", "values": [{"measurement": "exposure with first detectable viral RNA", "setting": "SHIVSF162P3 [1]; animal AG-07", "result": 13}, {"measurement": "exposure with first detectable viral RNA", "setting": "SHIVSF162P3 [1]; animal AG-46", "result": 10}, {"measurement": "exposure with first detectable viral RNA", "setting": "SHIVSF162P3 [1]; animal AG-80", "result": 5}, {"measurement": "exposure with first detectable viral RNA", "setting": "SHIVSF162P3 [1]; animal AH-04", "result": 12}, {"measurement": "Cox proportional hazard ratio [HR] (fold reduction of infection compared to controls)", "setting": "SHIVSF162P3 [1]; compared to 18 untreated controls", "result": 3.8}, {"measurement": "infection / survival analysis compared to untreated controls", "setting": "SHIVSF162P3 [1]; compared to untreated controls", "result": "statistically significant difference"}, {"measurement": "macaques that became infected", "setting": "SHIVSF162P3 [1]; of 6 macaques per group, once daily treatment, up to 14 rectal exposures", "result": 4}, {"measurement": "macaques remaining uninfected / protected after 14 exposures", "setting": "SHIVSF162P3 [1]; of 6 macaques per group, once daily treatment, weekly rectal SHIV162p3", "result": 2}, {"measurement": "protection compared with TDF alone", "setting": "SHIVSF162P3 [1]; versus 4 animals previously receiving TDF, difference not statistically significant (p=0.5)", "result": "higher than that previously seen in 4 animals receiving TDF"}, {"measurement": "AUC", "setting": "[2]; po, 200 mg", "result": "10000 ± 3120", "unit": "ng·h/mL"}, {"measurement": "AUC", "setting": "in vivo; male, 20 mg/kg", "result": 11000, "unit": "ng·h/mL"}, {"measurement": "plasma FTC levels after subcutaneous administration", "setting": "in vivo", "result": "comparable to those achieved during oral administration"}, {"measurement": "time after the peak in viremia to undetectable virus loads", "setting": "SHIVSF162P3 [3]; animal AG-07", "result": 7, "unit": "weeks"}, {"measurement": "time after the peak in viremia to undetectable virus loads", "setting": "SHIVSF162P3 [3]; animal AG-80", "result": 3, "unit": "weeks"}, {"measurement": "time after the peak in viremia to undetectable virus loads", "setting": "SHIVSF162P3 [3]; animal AH-04", "result": 4, "unit": "weeks"}, {"measurement": "viremia during follow-up", "setting": "SHIVSF162P3 [3]; for up to 20 weeks, animals AG-80, AH-04, AG-07, AG-81", "result": "consistently low or undetectable"}]}
{"smiles": "CC(C)OC(=O)OCOP(=O)(CO[C@H](C)Cn1cnc2c(N)ncnc21)OCOC(=O)OC(C)C", "note": "[TDF, tenofovir disoproxil fumarate]", "values": [{"measurement": "AUC", "setting": "[2]; 300 mg", "result": 5020, "unit": "ng·h/mL"}, {"measurement": "area-under the plasma concentration-time curve over a 24 h interval (AUC)", "setting": "in vivo; male, po, 22 mg/kg", "result": 4490, "unit": "ng·h/mL"}]}
{"smiles": "C[C@H](Cn1cnc2c(N)ncnc21)OCP(=O)(O)O", "note": "[tenofovir]", "values": [{"measurement": "prophylactic activity", "setting": "[4]", "result": "Prophylactic activity has been demonstrated"}, {"measurement": "protection against rectal SHIV transmission", "setting": "SHIV", "result": "partially protective"}]}
